Consider 13 sequences from patent US9340577B2, “HLA binding motifs and peptides and their uses” (priority 1992, dated 2016).

What all share (assay): biochemical
One test deals with DRB1*1302 (Homo sapiens, UniProt P01903+P01911, A100E/A169T/K41T/L162R/M171V/P40S/Q125H/Q178H/Q39Y/Q99D/R42S/S66N/T262R/V115G/W38E/Y61H). Type of test: binding.
Another test concerns the target DRB5*0101 (Homo sapiens, UniProt P01903+Q30154). Conditions: Binding affinity DRB5 *0101.
The target in the next test is DRB1*1501 (Homo sapiens, UniProt P01903+P01911). In kind it is binding.
The next test addresses DR4w4 (DRB1*0401) (Homo sapiens, UniProt P01903+P01911, A100K/A169T/F76Y/I96L/K127E/L162R/M171V/N62H/P40V/Q125Y/R42H/S133A/S149N/S66Y/V115G/V209L/W38E). Type of test: binding.
The target in a further test is DR1 (DRB1*0101) (Homo sapiens, UniProt P01903+P01911, A100R/D57E/F55L/F60I/F76Y/I96L/L162R/M171V/P40L/Q125E/R42F/V115G/Y59C). Type of test: binding.
The target in a further test is DRB1*0301 (Homo sapiens, UniProt P01903+P01911, A100K/A102G/A103R/A169T/F55Y/I96L/K41T/L162R/M171V/P40S/Q125H/Q178H/Q39Y/R42S/S66N/T106N/T262R/W38E/Y61H). Type of test: binding.
DRB1*0301, sequence (P01903 26-254 limits assumed, other chains not shown): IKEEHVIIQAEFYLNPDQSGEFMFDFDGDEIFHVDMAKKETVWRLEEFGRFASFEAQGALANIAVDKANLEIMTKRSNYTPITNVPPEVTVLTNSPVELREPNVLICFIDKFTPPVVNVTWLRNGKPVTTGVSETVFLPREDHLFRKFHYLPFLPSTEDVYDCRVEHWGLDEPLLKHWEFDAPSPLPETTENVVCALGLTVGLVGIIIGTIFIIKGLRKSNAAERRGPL
The next test addresses DR7 (DRB1*0701) (Homo sapiens, UniProt P01903+P01911, A100R/A102G/A103Q/D57E/D86V/E43K/F76Y/K127E/L162R/M171V/P40G/Q125H/Q99D/R33Q/R42Y/R54Q/S133A/S66F/T210M/V115G/Y107V/Y59L/Y89S). In kind it is binding.
For a further test, the target named is DRB1*0802 (Homo sapiens, UniProt P01903+P01911, A100R/A103L/A169T/F76Y/H45Y/I96F/K41T/L162R/M171V/P40S/Q125H/Q178H/Q39Y/Q99D/R218S/R42G/S66Y/V115G/W38E). In kind it is binding.
The next test concerns the target DRB1*1101 (Homo sapiens, UniProt P01903+P01911, A100R/A169T/A87E/I96F/K41T/L162R/M171V/P40S/Q125H/Q178H/Q39Y/Q99D/R42S/S66Y/T262R/V115G/W38E). Conditions: Binding affinity DRB1 *1101.
In another test the target is DRB1*0405 (Homo sapiens, UniProt P01903+P01911, A100R/A169T/D86S/F76Y/I96L/K127E/L162R/M171V/N62H/P40V/Q125Y/R42H/S133A/S149N/S66Y/V115G/V209L/W38E). In kind it is binding.
Another test concerns the target DRB1*1201 (Homo sapiens, UniProt P01903+P01911, A100R/A169T/D57E/D86V/F55L/H45Y/K41T/L162R/M171V/P40S/Q125H/Q178H/Q39Y/Q99D/R42G/S66L/T262R/V114A/V67L/W38E/Y59H/Y61H/Y89S). In kind it is binding.
The target in another test is DRB1*0901 (Homo sapiens, UniProt P01903+P01911, A100R/A103E/D57H/D86V/F55Y/F60I/F76Y/I96F/K127E/L162R/M171V/P40D/Q125H/Q99R/R33Q/R42F/S133A/S66N/T210M/V115G/W38K/Y107V/Y59G/Y89S). Type of test: binding.
The target of another test is DRB4*0101 (Homo sapiens, UniProt P01903+P13762, G164S). In kind it is binding.

No end group written: not given here.

DRB1*1302, sequence (P01903 26-254 limits assumed, other chains not shown): as above
DRB1*1101, sequence (P01903 26-254 limits assumed, other chains not shown): as above

For ETCMVIEPPKLRSQT [Peptide 90.0083], the IC50 was above 20000 nM against DRB1*1302; 124 nM on DRB5*0101; 670 nM against DRB1*1501; 1550 nM at DR4w4 (DRB1*0401); 26 nM against DR1 (DRB1*0101); 275 nM at DRB1*0301. Besides, the IC50 at DR7 (DRB1*0701) is 794 nM; on DRB1*0802, 4300 nM; at DRB1*1101, 4740 nM; at DRB1*0405, 2280 nM; at DRB1*1201, 825 nM; against DRB1*0901 it was above 20000 nM. Further, the IC50 on DRB4*0101 was 16 nM.

As to GEIYIIEEDTCTMVT [Peptide 90.0202], the IC50 on DRB1*1302 is 426 nM; on DRB5*0101 it was above 20000 nM; against DRB1*1501, above 20000 nM; against DR4w4 (DRB1*0401), 148 nM; against DR1 (DRB1*0101) it was 1600 nM; on DRB1*0301, 55 nM. Further, the IC50 on DR7 (DRB1*0701) was 6600 nM; against DRB1*0802 it was above 20000 nM; on DRB1*1101, above 20000 nM; on DRB1*0405, 8110 nM; on DRB1*1201, above 20000 nM; on DRB1*0901 it was above 20000 nM. On DRB4*0101, the IC50 was determined as 322 nM.

For FKKFLKGIPKKSCML [Peptide 89.0073], the IC50 against DRB1*1302 was 2660 nM; at DRB5*0101, 66 nM; at DRB1*1501, 508 nM; at DR4w4 (DRB1*0401), 452 nM; on DR1 (DRB1*0101), 20 nM; against DRB1*0301, above 20000 nM. In addition, the IC50 against DR7 (DRB1*0701) is 2090 nM; against DRB1*0802, 320 nM; at DRB1*1101, 64 nM; against DRB1*0405, 17500 nM; at DRB1*1201, 709 nM; at DRB1*0901 it was 2480 nM. It took 2220 nM to reach half-maximal inhibition against DRB4*0101 (IC50).

For the sequence TPEWIQRLTIIQHGI [Peptide 89.0030], the IC50 against DRB1*1302 is 413 nM; at DRB5*0101, 5890 nM; against DRB1*1501 it was 17600 nM; at DR4w4 (DRB1*0401), 190 nM; at DR1 (DRB1*0101), 669 nM; on DRB1*0301 it was above 20000 nM. For the same sequence, the IC50 amounted to 155 nM against DR7 (DRB1*0701); 374 nM against DRB1*0802; 389 nM on DRB1*1101; 204 nM against DRB1*0405; 418 nM on DRB1*1201; 2430 nM against DRB1*0901. On DRB4*0101, this sequence showed an IC50 of 6.8 nM.

With QWAYDNDIVDDSEIA [Peptide 90.0036], the IC50 against DRB1*1302 was above 20000 nM; at DRB5*0101, above 20000 nM; against DRB1*1501 it was above 20000 nM; against DR4w4 (DRB1*0401), 11800 nM; on DR1 (DRB1*0101) it was above 20000 nM; against DRB1*0301, 990 nM. Moreover, the IC50 was above 20000 nM against DR7 (DRB1*0701); above 20000 nM at DRB1*0802; above 20000 nM on DRB1*1101; 4260 nM against DRB1*0405; above 20000 nM at DRB1*1201; above 20000 nM on DRB1*0901. On DRB4*0101, this sequence showed an IC50 above 20000 nM.

For DWCVAAFGVTGTVAE [Peptide 89.0042], the 50% inhibitory concentration (IC50) against DRB1*1302 was above 20000 nM; on DRB5*0101, 8660 nM; against DRB1*1501 it was 64 nM; at DR4w4 (DRB1*0401), 294 nM; against DR1 (DRB1*0101) it was 11 nM; against DRB1*0301 it was above 20000 nM. The IC50 is 349 nM against DR7 (DRB1*0701); 3500 nM against DRB1*0802; 3230 nM at DRB1*1101; 184 nM on DRB1*0405; above 20000 nM at DRB1*1201; 901 nM on DRB1*0901. The IC50 on DRB4*0101 is 601 nM.

On to NGWFYVEAVIDRQTG [Peptide 90.0062], for which the IC50 is 4870 nM at DRB1*1302; 558 nM at DRB5*0101; above 20000 nM against DRB1*1501; 69 nM at DR4w4 (DRB1*0401); 157 nM against DR1 (DRB1*0101); 241 nM at DRB1*0301. Further, the IC50 came to 157 nM at DR7 (DRB1*0701); 3990 nM against DRB1*0802; 3350 nM at DRB1*1101; 12 nM on DRB1*0405; 4040 nM at DRB1*1201; 453 nM against DRB1*0901. Also, on DRB4*0101, it took 14 nM to reach half-maximal inhibition (IC50).

On to ISEVMGDTPEWIQRL [Peptide 90.0052], for which the IC50 was 9 nM against DRB1*1302; above 20000 nM on DRB5*0101; 6830 nM against DRB1*1501; above 20000 nM against DR4w4 (DRB1*0401); 2880 nM on DR1 (DRB1*0101); 55 nM at DRB1*0301. Besides, the IC50 against DR7 (DRB1*0701) is 4020 nM; against DRB1*0802, above 20000 nM; at DRB1*1101, above 20000 nM; on DRB1*0405, 4110 nM; against DRB1*1201 it was above 20000 nM; at DRB1*0901, above 20000 nM. It took 2040 nM to reach half-maximal inhibition on DRB4*0101 (IC50).

In the case of CQAIELQLALEALNK [Peptide 90.0014], the IC50 against DRB1*1302 stood at 214 nM; at DRB5*0101, 1910 nM; on DRB1*1501, 200 nM; on DR4w4 (DRB1*0401), 450 nM; on DR1 (DRB1*0101) it was 25 nM; against DRB1*0301, 466 nM. Also, the IC50 at DR7 (DRB1*0701) was above 20000 nM; against DRB1*0802, 3590 nM; on DRB1*1101, 3230 nM; against DRB1*0405, 1520 nM; at DRB1*1201 it was 1100 nM; on DRB1*0901 it was 1780 nM. At DRB4*0101, this sequence had an IC50 of 14 nM.

Take EVHMENESIYCPDSV [Peptide 90.0238]: the half-maximal inhibitory concentration (IC50) at DRB1*1302 was 2370 nM; at DRB5*0101, above 20000 nM; on DRB1*1501, 516 nM; at DR4w4 (DRB1*0401), 5250 nM; on DR1 (DRB1*0101) it was 634 nM; against DRB1*0301, 410 nM. The IC50 at DR7 (DRB1*0701), against DRB1*0802, on DRB1*1101, against DRB1*0405, on DRB1*1201 and against DRB1*0901 was above 20000 nM each time. Moreover, the IC50 against DRB4*0101 was above 20000 nM.

Turning to CMLIQPPKLRSTAAA [Peptide 89.0047], the IC50 at DRB1*1302 amounted to 3610 nM; at DRB5*0101, 904 nM; against DRB1*1501, 2640 nM; against DR4w4 (DRB1*0401) it was 2380 nM; on DRB1*0301, 5760 nM; against DR7 (DRB1*0701), 470 nM. Also, the IC50 was 2650 nM against DRB1*0802; 982 nM at DRB1*1101; above 20000 nM on DRB1*0405; 3690 nM at DRB1*1201; 7540 nM at DRB1*0901; 567 nM at DRB4*0101.

Take DYVLDLQPEATDLHC [Peptide 1543.10]: the IC50 against DRB1*1302 was above 20000 nM; at DRB5*0101 it was above 20000 nM; against DRB1*1501, above 20000 nM; on DR4w4 (DRB1*0401) it was 35 nM; at DR1 (DRB1*0101), 5050 nM; against DRB1*0301, 11000 nM. Besides, the IC50 against DR7 (DRB1*0701) was above 20000 nM; against DRB1*0802 it was above 20000 nM; on DRB1*1101 it was above 20000 nM; at DRB1*0405, 678 nM; on DRB1*1201 it was 4880 nM; at DRB1*0901, above 20000 nM. The same sequence registered an IC50 at DRB4*0101 of 69 nM.

As to RLTVAKLMSNLLSIP [Peptide 89.0065], the IC50 was 7.2 nM against DRB1*1302; 498 nM at DRB5*0101; 9.5 nM against DRB1*1501; 6.2 nM against DR4w4 (DRB1*0401); 4.3 nM against DR1 (DRB1*0101); 4150 nM against DRB1*0301. Also, the IC50 amounted to 45 nM on DR7 (DRB1*0701); 483 nM against DRB1*0802; 62 nM at DRB1*1101; 43 nM against DRB1*0405; 107 nM on DRB1*1201; 994 nM against DRB1*0901. For the same sequence, the IC50 on DRB4*0101 amounted to 4 nM.
